Measured values taken from US9359298B2, “Cajanine structure analogous compound, preparation method and use” (INSTITUTE OF MEDICINAL BIOTECHNOLOGY, CHINESE ACADEMY OF …, priority 2011, dated 2016).
In brackets after ≈: the same amount, converted by molar mass. Read-outs that look alike come from different tables or passages of the source.

Columns and labels:
Type in all cases: cell-based
[1] = tested on: Influenza A virus (hanfang359/95); experiment: Determination of anti-influenza virus activity (CPE in MDCK cells); conditions: for IC50: Influenza A virus, MDCK, 36 h; for anti-influenza virus activities compared with the lead compound cajanine: statement in words
Coxsackie virus B6 = experiment: Coxsackie virus activity assay (CPE in Vero cells); conditions: for IC50: Vero
HCV = experiment: Anti-hepatitis C virus (HCV) activity assay (HCV RNA in Huh7.5 cells); conditions: for EC50: Hepatitis C virus, Huh7.5, 72 h, read-out: HCV EC50; for anti-HCV viral activity: statement in words
Procedure: Inoculate Huh7.5 cells into 96-well plates to a density of 3×10^4 cells/cm^2, culture for 24h, infect the cells with 45 IU/cell HCV supernatant, meanwhile, add drug solutions or solvent control for treatment.

HIV-1 III B virus = experiment: Anti-HIV activity assay (P24 antigen in MT-4 cells); conditions: for IC50: Human immunodeficiency virus 1, MT4, 96 h, read-out: HIV IC50; for anti-HIV viral activity: statement in words
PC12 cells [2] = experiment: Neuroprotective activity assay, serum-deprived injury to PC12 cells (MTT); conditions: 10 μM test compound, 48 h, Control 100.0 ± 9.2, Model 69.3 ± 4.1; for viability at 10 µM: Rattus norvegicus, PC-12, 48 h, read-out: serum-deprived (surviving PC12 cells, MTT 570 nm)
Procedure: (§1) Discard the original culture media from confluent monolayers of PC12 cells (simulated neuronal cells), add DMEM complete medium with 5% FBS, 5% horse serum gently beat upon the cells with a pipette to completely disperse them, inoculate 100 μl cell suspension at a density of […] per well to 96 hole plates treated with poly-lysine (0.1 mg/ml) in advance, culture for 24h. Divide the experimenting cells into control group, model group and dosing groups. Add complete medium to the control group. Model groups includes rotenone group and serum-deprived group, add rotenone to the corresponding modules with a final concentration of 4 μM rotenone to take effect on the cells for 48 h, add serum-deprived groups with serum-free DMEM medium to take effect on the cells for 48 h. Dosing groups also includes two groups, one using rotenone module as model, another using serum-deprived module as model, and both add in 10 μM test compounds during modeling. 48h later, add 10 μl 5 mg/ml MTT, subsequently discard the supernatant 4h later and add in 150 μl DMSO, measure 570 nm absorbance to represent the numbers of surviving cells.

PC12 cells [3] = experiment: Neuroprotective activity assay, rotenone injury to PC12 cells (MTT); conditions: 10 μM test compound, 4 μM rotenone, 48 h, Control 100.0 ± 8.9, Model 73.2 ± 7.8; for viability at 10 µM: Rattus norvegicus, PC-12, 48 h, read-out: rotenone (surviving PC12 cells, MTT 570 nm)
Procedure: as §1

[4] = Huh7.5 cells, 72 h, HCV RNA by RT-PCR, Reed-Muench
[5] = MT-4 cells, HIV-1 III B 100TCID50, 96 h, P24 antigen
[6] = read-out: COX-B6 IC50, Vero cells, about 100TCID50, CPE, Reed-Muench

| Compound | Influenza A virus (hanfang359/95) IC50 [1] | COX-B6 IC50 (Coxsackie virus B6) | HCV EC50 (HCV; [4]) | HIV IC50 (HIV-1 III B virus; [5]) | serum-deprived (surviving PC12 cells, MTT 570 nm) (PC12 cells [2]) | rotenone (surviving PC12 cells, MTT 570 nm) (PC12 cells [3]) | IC50 [1] | IC50 (Coxsackie virus B6; [6]) | EC50 (HCV; [4]) | anti-HCV viral activity (HCV) | IC50 (HIV-1 III B virus; [5]) | anti-HIV viral activity (HIV-1 III B virus) | viability at 10 µM (PC12 cells [2]) | viability at 10 µM (PC12 cells [3]) | anti-influenza virus activities compared with the lead compound cajanine [1] | IC50 (Coxsackie virus B6; read-out: COX-B6 IC50) | EC50 (HCV) | IC50 (HIV-1 III B virus) |
| --- | --- | --- | --- | --- | --- | --- | --- | --- | --- | --- | --- | --- | --- | --- | --- | --- | --- | --- |
| 2-isopentenyl-3-methoxy-5-[4′-methylcyclohexylene methyl]phenol [Compound 10n] | >0.69 µg/mL | >2.05 µg/mL | 0.89 µg/mL | 1.43 µg/mL | 79.6 ± 2.8 | 78.6 ± 3.2 |  |  |  |  |  |  |  |  |  |  |  |  |
| COc1cc(/C=C/c2cc(O)cc(O)n2)c(C(=O)O)c(O)c1CC=C(C)C [1a′, 2-hydroxy-3-isopentenyl-4-methoxy-6-[(E)-2-(4,6-dihydroxy-2-yl)ethenyl]benzoic acid] |  |  |  |  |  |  | 0.19 µg/mL (≈ 0.512 µM) | 0.36 µg/mL (≈ 0.969 µM) | 0.94 µg/mL (≈ 2.53 µM) | stronger anti-HIV, HCV viral activities | 1.38 µg/mL (≈ 3.72 µM) | stronger anti-HIV, HCV viral activities | 88.7 ± 4.9% | 87.2 ± 4.3% |  |  |  |  |
| COc1cccc(/C=C/c2cc(OC)c(CC=C(C)C)c(O)c2C(=O)O)n1 [1b′, 2-hydroxy-3-isopentenyl-4-methoxy-6-[(E)-2-(6-methoxypyrid-2-yl)ethenyl]benzoic acid] |  |  |  |  |  |  | 4.62 µg/mL (≈ 12.5 µM) | 5.98 µg/mL (≈ 16.2 µM) | 0.88 µg/mL (≈ 2.38 µM) | stronger anti-HIV, HCV viral activities | 3.19 µg/mL (≈ 8.64 µM) | stronger anti-HIV, HCV viral activities | 88.9 ± 1.9% | 87.2 ± 6.31% |  |  |  |  |
| COc1cc(/C=C/c2cccc(O)n2)c(C(=O)O)c(O)c1CC=C(C)C [1c′, 2-hydroxy-3-isopentenyl-4-methoxy-6-[(E)-2-(6-hydroxypyrid-2-yl)ethenyl]benzoic acid] |  |  |  |  |  |  | 1.34 µg/mL (≈ 3.77 µM) | 2.56 µg/mL (≈ 7.2 µM) | 1.3 µg/mL (≈ 3.66 µM) |  | 1.61 µg/mL (≈ 4.53 µM) |  | 85.9 ± 4.7% | 85.6 ± 3.8% |  |  |  |  |
| C=CCc1c(OC)cc(/C=C/c2ccccc2)c(C(=O)OC)c1O [8a′, methyl 2-hydroxy-3-allyl-4-methoxy-6-[(E)-styryl]benzoate] |  |  |  |  |  |  | 0.15 µg/mL (≈ 0.462 µM) | 1.64 µg/mL (≈ 5.06 µM) |  |  |  |  | 87.9 ± 2.5% | 88 ± 6.9% |  |  |  |  |
| COc1cc(/C=C/c2cc(O)ccn2)cc(O)c1CC=C(C)C [10a′, 2-isopentenyl-3-methoxy-5-[(E)-2-(4-hydroxypyrid-2-yl)ethenyl]phenol] |  |  |  |  |  |  | 0.17 µg/mL (≈ 0.546 µM) | 0.41 µg/mL (≈ 1.32 µM) | 1.41 µg/mL (≈ 4.53 µM) |  | 1.33 µg/mL (≈ 4.27 µM) |  | 86.3 ± 1.2% | 89.2 ± 3.2% |  |  |  |  |
| COc1cc(/C=C/c2cc(O)c(CC=C(C)C)c(OC)c2)nc(OC)c1 [10d′] |  |  |  |  |  |  | 0.14 µg/mL (≈ 0.394 µM) | 0.35 µg/mL (≈ 0.985 µM) | 0.65 µg/mL (≈ 1.83 µM) |  | 1.3 µg/mL (≈ 3.66 µM) |  | 91.2 ± 3.2% | 94.3 ± 5.4% |  |  |  |  |
| COc1cc(/C=C/c2cc(O)cc(O)n2)cc(O)c1CC=C(C)C [10e′] |  |  |  |  |  |  | 0.21 µg/mL (≈ 0.641 µM) | 1.21 µg/mL (≈ 3.7 µM) | 1.87 µg/mL (≈ 5.71 µM) |  | 0.71 µg/mL (≈ 2.17 µM) |  | 87.9 ± 4.7% | 88.9 ± 2.8% |  |  |  |  |
| COc1cccc(/C=C/c2cc(O)c(CC=C(C)C)c(OC)c2)n1 [10f′] |  |  |  |  |  |  | 0.23 µg/mL (≈ 0.707 µM) | 2.31 µg/mL (≈ 7.1 µM) | 0.61 µg/mL (≈ 1.87 µM) |  | 1.04 µg/mL (≈ 3.2 µM) |  | 80.5 ± 3.2% | 79.1 ± 5.6% |  |  |  |  |
| COc1cc(/C=C/c2cccc(O)n2)cc(O)c1CC=C(C)C [10g′] |  |  |  |  |  |  | 0.87 µg/mL (≈ 2.79 µM) | 0.12 µg/mL (≈ 0.385 µM) | 2.3 µg/mL (≈ 7.39 µM) |  | 3.93 µg/mL (≈ 12.6 µM) |  | 71 ± 5.2% | 63.5 ± 2.1% |  |  |  |  |
| C=CCc1c(O)cc(/C=C/c2ccccc2)cc1OC [10h′, 2-allyl-3-methoxy-5-[(E)-styryl]phenol] |  |  |  |  |  |  | 0.09 µg/mL (≈ 0.338 µM) | 0.54 µg/mL (≈ 2.03 µM) |  |  |  |  | 87.6 ± 4.3% | 86.7 ± 4.5% |  |  |  |  |
| COc1cc(/C=C/c2ccc(F)cc2)c(C(=O)O)c(O)c1CC=C(C)C [Compound 1a, 2-hydroxy-3-isopentenyl-4-methoxy-6-[(E)-4-fluorostyryl]benzoic acid] |  |  |  |  |  |  | > 0.69 µg/mL | > 0.69 µg/mL | 1.04 µg/mL (≈ 2.92 µM) | stronger anti-HIV, HCV viral activities | 1.01 µg/mL (≈ 2.83 µM) | stronger anti-HIV, HCV viral activities | 16.7 ± 0.6% | 62.4 ± 3.8% |  |  |  |  |
| COc1cc(/C=C/c2ccccc2Cl)c(C(=O)O)c(O)c1CC=C(C)C [Compound 1b, 2-hydroxy-3-isopentenyl-4-methoxy-6-[(E)-2-chlorostyryl]benzoic acid] |  |  |  |  |  |  | > 18.5 µg/mL | > 1.03 µg/mL | 0.67 µg/mL (≈ 1.8 µM) | stronger anti-HIV, HCV viral activities | 1.22 µg/mL (≈ 3.27 µM) | stronger anti-HIV, HCV viral activities | 15.7 ± 0.3% | 68.2 ± 8% |  |  |  |  |
| COc1ccc(/C=C/c2cc(OC)c(CC=C(C)C)c(O)c2C(=O)O)cc1 [Compound 1c] |  |  |  |  |  |  | > 2.06 µg/mL | 1.6 µg/mL (≈ 4.34 µM) | 2.69 µg/mL (≈ 7.3 µM) | stronger anti-HIV, HCV viral activities | 1.64 µg/mL (≈ 4.45 µM) | stronger anti-HIV, HCV viral activities | 16.1 ± 0.7% | 77.2 ± 0.6% |  |  |  |  |
| COc1cc(/C=C/c2ccccc2C)c(C(=O)O)c(O)c1CC=C(C)C [Compound 1e, 2-hydroxy-3-isopentenyl-4-methoxy-6-[(E)-2-methylstyryl]benzoic acid] |  |  |  |  |  |  | > 2.47 µg/mL | 3.26 µg/mL (≈ 9.25 µM) | 0.47 µg/mL (≈ 1.33 µM) | stronger anti-HIV, HCV viral activities | 2.7 µg/mL (≈ 7.66 µM) | stronger anti-HIV, HCV viral activities | 30.6 ± 12% | 55.6 ± 9.9% |  |  |  |  |
| COc1cc(/C=C/c2cccc(C)c2)c(C(=O)O)c(O)c1CC=C(C)C [Compound 1f, 2-hydroxy-3-isopentenyl-4-methoxy-6-[(E)-3-methylstyryl]benzoic acid] |  |  |  |  |  |  | 0.48 µg/mL (≈ 1.36 µM) | 4.65 µg/mL (≈ 13.2 µM) | 0.53 µg/mL (≈ 1.5 µM) | stronger anti-HIV, HCV viral activities | 1.45 µg/mL (≈ 4.11 µM) | stronger anti-HIV, HCV viral activities | 31.7 ± 10.3% | 58 ± 4.5% | significantly stronger than the lead compound cajanine |  |  |  |
| COc1cc(/C=C/c2ccccc2)cc(OC(=O)NN)c1CC=C(C)C [Compound 29c, 2-isopentenyl-3-hydrazinoformylox-5-[(E)-styryl]anisole] |  |  |  |  |  |  | 0.24 µg/mL (≈ 0.681 µM) |  |  |  |  |  |  |  | significantly stronger than the lead compound cajanine | 0.36 µg/mL (≈ 1.02 µM) | 0.89 µg/mL (≈ 2.53 µM) | 0.6 µg/mL (≈ 1.7 µM) |
| COC(=O)c1c(/C=C/c2ccccc2)cc(OC)c(CC=C(C)C)c1OC(=O)C(=O)O [Compound 31a, methyl 2-carboxyformylxy-3-isopentenyl-4-methoxy-6-[(E)-styryl]benzoate] |  |  |  |  |  |  | 0.14 µg/mL (≈ 0.33 µM) | 2.31 µg/mL (≈ 5.44 µM) | 0.71 µg/mL (≈ 1.67 µM) |  | 1.3 µg/mL (≈ 3.06 µM) |  |  |  | significantly stronger than the lead compound cajanine |  |  |  |
| COc1cc(/C=C/c2ccccc2)cc(OC(=O)C(=O)O)c1CC=C(C)C [Compound 31c, 2-isopentenyl-3-carboxyformyloxy-5-[(E)-styryl]anisole] |  |  |  |  |  |  | 0.08 µg/mL (≈ 0.218 µM) | 0.67 µg/mL (≈ 1.83 µM) | 0.77 µg/mL (≈ 2.1 µM) | stronger anti-HIV, HCV viral activities | 0.29 µg/mL (≈ 0.791 µM) | stronger anti-HIV, HCV viral activities |  |  | significantly stronger than the lead compound cajanine |  |  |  |
